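Where inhibition never reached the appropriate level, the endpoint shown equals the highest concentration tested. Otherwise, values were interpolated linearly from a five-concentration, 48-hour dose response in 96-well plates. The concentration for 50% growth inhibition is given as GI50.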 Active and inactive are the calls of the source. Rule as the data show it: active = GI50 up to about 1.1 µM and inactive = higher.
Legend:
Experiment in all cases: NCI-60 cell line screen, 48 h
OVCAR-3 = tested on: OVCAR-3
ACHN = tested on: ACHN
DLD-1 = tested on: DLD-1
UO-31 = tested on: UO-31
SNB-78 = tested on: SNB-78
NCI-H23 = tested on: NCI-H23
OVCAR-8 = tested on: OVCAR-8
A549 = tested on: A549
786-0 = tested on: 786-0
RXF 631 = tested on: RXF 631
NCI-H522 = tested on: NCI-H522
XF498 = tested on: XF498
SNB-75 = tested on: SNB-75
UACC-257 = tested on: UACC-257
DMS-273 = tested on: DMS-273
Malme-3M = tested on: Malme-3M
SK-MEL-2 = tested on: SK-MEL-2
K562 = tested on: K562
SF-539 = tested on: SF-539
LXFL 529 = tested on: LXFL 529
UACC-62 = tested on: UACC-62
OVCAR-4 = tested on: OVCAR-4
NCI-H460 = tested on: NCI-H460
RXF 393 = tested on: RXF 393
SK-MEL-5 = tested on: SK-MEL-5
LOX IMVI = tested on: LOX IMVI
HL-60 = tested on: HL-60
HOP-92 = tested on: HOP-92
SN12C = tested on: SN12C
HOP-62 = tested on: HOP-62
HT-29 = tested on: HT-29
IGROV-1 = tested on: IGROV-1
HCT-116 = tested on: HCT-116
SK-MEL-28 = tested on: SK-MEL-28
HOP-18 = tested on: HOP-18
SW-620 = tested on: SW-620
U-251 = tested on: U-251
SF-295 = tested on: SF-295
SK-OV-3 = tested on: SK-OV-3
DMS-114 = tested on: DMS-114
A498 = tested on: A498
M19-MEL = tested on: M19-MEL
HCC 2998 = tested on: HCC 2998
KM12 = tested on: KM12
M14 = tested on: M14
SF-268 = tested on: SF-268
MOLT-4 = tested on: MOLT-4
HCT-15 = tested on: HCT-15
CCRF-CEM = tested on: CCRF-CEM
SNB-19 = tested on: SNB-19
COLO 205 = tested on: COLO 205
NCI-H226 = tested on: NCI-H226
CAKI-1 = tested on: CAKI-1
EKVX = tested on: EKVX
SR = tested on: SR
OVCAR-5 = tested on: OVCAR-5
KM-20L2 = tested on: KM-20L2
RPMI-8226 = tested on: RPMI-8226
TK-10 = tested on: TK-10

SMILES: c1ccc2c(c1)cc(C1NCCc3nc[nH]c31)c1ccccc12 (stereo not given)
- GI50 (OVCAR-3): > 61.9 µM (inactive)
- GI50 (ACHN): 23.2 µM (inactive)
- GI50 (DLD-1): 63.8 µM (inactive)
- GI50 (UO-31): 33.7 µM (inactive)
- GI50 (SNB-78): > 86.5 µM (inactive)
- GI50 (NCI-H23): > 100 µM (inactive)
- GI50 (OVCAR-8): > 68.9 µM (inactive)
- GI50 (A549): 54.5 µM (inactive)
- GI50 (786-0): 32.1 µM (inactive)
- GI50 (RXF 631): 50.8 µM (inactive)
- GI50 (NCI-H522): 27.7 µM (inactive)
- GI50 (XF498): 22.5 µM (inactive)
- GI50 (SNB-75): 32.7 µM (inactive)
- GI50 (UACC-257): 31 µM (inactive)
- GI50 (DMS-273): 29.7 µM (inactive)
- GI50 (Malme-3M): 30.6 µM (inactive)
- GI50 (SK-MEL-2): 18.4 µM (inactive)
- GI50 (K562): 15.2 µM (inactive)
- GI50 (SF-539): > 45.2 µM (inactive)
- GI50 (LXFL 529): 41.3 µM (inactive)
- GI50 (UACC-62): 22.6 µM (inactive)
- GI50 (OVCAR-4): 37.2 µM (inactive)
- GI50 (NCI-H460): 22.6 µM (inactive)
- GI50 (RXF 393): 31.7 µM (inactive)
- GI50 (SK-MEL-5): > 48 µM (inactive)
- GI50 (LOX IMVI): 19.8 µM (inactive)
- GI50 (HL-60): 41.6 µM (inactive)
- GI50 (HOP-92): > 44.4 µM (inactive)
- GI50 (SN12C): 56 µM (inactive)
- GI50 (HOP-62): 32.4 µM (inactive)
- GI50 (HT-29): 44.4 µM (inactive)
- GI50 (IGROV-1): > 54.6 µM (inactive)
- GI50 (HCT-116): 21.1 µM (inactive)
- GI50 (SK-MEL-28): > 47.6 µM (inactive)
- GI50 (HOP-18): > 62.1 µM (inactive)
- GI50 (SW-620): 25.5 µM (inactive)
- GI50 (U-251): 39.1 µM (inactive)
- GI50 (SF-295): 56.2 µM (inactive)
- GI50 (SK-OV-3): > 100 µM (inactive)
- GI50 (DMS-114): > 47.2 µM (inactive)
- GI50 (A498): 22.5 µM (inactive)
- GI50 (M19-MEL): 29.6 µM (inactive)
- GI50 (HCC 2998): 15.7 µM (inactive)
- GI50 (KM12): 47.6 µM (inactive)
- GI50 (M14): 18.5 µM (inactive)
- GI50 (SF-268): 77.1 µM (inactive)
- GI50 (MOLT-4): 21 µM (inactive)
- GI50 (HCT-15): 59.6 µM
- GI50 (CCRF-CEM): 27.2 µM (inactive)
- GI50 (SNB-19): > 100 µM (inactive)
- GI50 (COLO 205): 13.5 µM (inactive)
- GI50 (NCI-H226): 27.7 µM (inactive)
- GI50 (CAKI-1): 48.8 µM (inactive)
- GI50 (EKVX): > 100 µM (inactive)
- GI50 (SR): 34.3 µM (inactive)
- GI50 (OVCAR-5): > 74.3 µM (inactive)
- GI50 (KM-20L2): 56.5 µM (inactive)
- GI50 (RPMI-8226): 37.6 µM (inactive)
- GI50 (TK-10): > 100 µM (inactive)

SMILES: CC(C)(C)OC(=O)N1N=NC2C1C1CC(OCc3ccccc3)(OCc3ccccc3)C2O1 (stereo not given)
- GI50 (OVCAR-3): 30.3 µM (inactive)
- GI50 (ACHN): > 100 µM (inactive)
- GI50 (DLD-1): 26.1 µM (inactive)
- GI50 (UO-31): 29.9 µM (inactive)
- GI50 (SNB-78): 43.7 µM (inactive)
- GI50 (NCI-H23): 21.1 µM (inactive)
- GI50 (A549): 84.5 µM (inactive)
- GI50 (786-0): 40.8 µM (inactive)
- GI50 (RXF 631): > 100 µM (inactive)
- GI50 (XF498): 15.9 µM (inactive)
- GI50 (SNB-75): 28.1 µM (inactive)
- GI50 (UACC-257): 23.6 µM (inactive)
- GI50 (DMS-273): 52.2 µM (inactive)
- GI50 (Malme-3M): 65.8 µM (inactive)
- GI50 (SK-MEL-2): 49.2 µM (inactive)
- GI50 (K562): 20.2 µM (inactive)
- GI50 (SF-539): > 10 µM (inactive)
- GI50 (LXFL 529): 16.4 µM (inactive)
- GI50 (UACC-62): 71.4 µM (inactive)
- GI50 (OVCAR-4): 32.5 µM (inactive)
- GI50 (NCI-H460): > 100 µM (inactive)
- GI50 (RXF 393): 27.9 µM (inactive)
- GI50 (SK-MEL-5): 16.8 µM (inactive)
- GI50 (LOX IMVI): 18.1 µM (inactive)
- GI50 (HL-60): 8.02 µM (inactive)
- GI50 (HOP-92): 33.5 µM (inactive)
- GI50 (SN12C): 49.4 µM (inactive)
- GI50 (HOP-62): > 100 µM (inactive)
- GI50 (HT-29): > 100 µM (inactive)
- GI50 (IGROV-1): > 100 µM (inactive)
- GI50 (SK-MEL-28): 29 µM (inactive)
- GI50 (HOP-18): 35.9 µM (inactive)
- GI50 (SW-620): 14.7 µM (inactive)
- GI50 (U-251): 55.1 µM (inactive)
- GI50 (SF-295): 40 µM (inactive)
- GI50 (SK-OV-3): > 100 µM (inactive)
- GI50 (DMS-114): 17.7 µM (inactive)
- GI50 (A498): > 100 µM (inactive)
- GI50 (M19-MEL): 37.5 µM (inactive)
- GI50 (HCC 2998): > 100 µM (inactive)
- GI50 (KM12): 81.8 µM (inactive)
- GI50 (M14): 44.1 µM (inactive)
- GI50 (SF-268): 35.1 µM (inactive)
- GI50 (MOLT-4): 7.82 µM (inactive)
- GI50 (HCT-15): 31.3 µM
- GI50 (CCRF-CEM): 11.2 µM (inactive)
- GI50 (COLO 205): > 100 µM (inactive)
- GI50 (NCI-H226): 21.4 µM (inactive)
- GI50 (CAKI-1): > 100 µM (inactive)
- GI50 (OVCAR-5): > 100 µM (inactive)
- GI50 (KM-20L2): > 100 µM (inactive)
- GI50 (RPMI-8226): 14.1 µM (inactive)

SMILES: COc1ccccc1NC(=O)C1=C(C)NC(C)=C(C(=O)Nc2ccccc2OC)C1c1ccc(C2C(C(=O)Nc3ccccc3OC)=C(C)NC(C)=C2C(=O)Nc2ccccc2OC)cc1
- GI50 (OVCAR-3): 2.29 µM (inactive)
- GI50 (ACHN): 2.88 µM (inactive)
- GI50 (DLD-1): 1.22 µM (inactive)
- GI50 (UO-31): 4.14 µM (inactive)
- GI50 (SNB-78): 4.16 µM (inactive)
- GI50 (NCI-H23): 2.39 µM (inactive)
- GI50 (OVCAR-8): 2.53 µM (inactive)
- GI50 (A549): > 27.8 µM (inactive)
- GI50 (786-0): 1.78 µM (inactive)
- GI50 (RXF 631): 3.46 µM (inactive)
- GI50 (NCI-H522): 1.8 µM (inactive)
- GI50 (XF498): 2.21 µM (inactive)
- GI50 (SNB-75): 10.2 µM (inactive)
- GI50 (UACC-257): 2.33 µM (inactive)
- GI50 (DMS-273): 2.32 µM (inactive)
- GI50 (Malme-3M): 2.51 µM (inactive)
- GI50 (SK-MEL-2): 2.08 µM (inactive)
- GI50 (K562): 2.18 µM (inactive)
- GI50 (SF-539): 1.68 µM (inactive)
- GI50 (LXFL 529): 1.89 µM (inactive)
- GI50 (UACC-62): 1.68 µM (inactive)
- GI50 (OVCAR-4): 3.94 µM (inactive)
- GI50 (NCI-H460): 2.78 µM (inactive)
- GI50 (RXF 393): 2.38 µM (inactive)
- GI50 (SK-MEL-5): 2.84 µM (inactive)
- GI50 (LOX IMVI): 1.29 µM (inactive)
- GI50 (HL-60): 1.46 µM (inactive)
- GI50 (HOP-92): 3.29 µM (inactive)
- GI50 (SN12C): 1.79 µM (inactive)
- GI50 (HOP-62): 6.35 µM (inactive)
- GI50 (HT-29): 1.71 µM (inactive)
- GI50 (IGROV-1): 1.99 µM (inactive)
- GI50 (HCT-116): 1.3 µM (inactive)
- GI50 (SK-MEL-28): 2.44 µM (inactive)
- GI50 (HOP-18): 18 µM (inactive)
- GI50 (SW-620): 1.86 µM (inactive)
- GI50 (U-251): 2.52 µM (inactive)
- GI50 (SF-295): 1.53 µM (inactive)
- GI50 (SK-OV-3): 13 µM (inactive)
- GI50 (DMS-114): 3.52 µM (inactive)
- GI50 (A498): 6.12 µM (inactive)
- GI50 (M19-MEL): 3.15 µM (inactive)
- GI50 (HCC 2998): 1.95 µM (inactive)
- GI50 (KM12): 1.64 µM (inactive)
- GI50 (M14): 1.61 µM (inactive)
- GI50 (SF-268): 2.82 µM (inactive)
- GI50 (MOLT-4): 1.19 µM (inactive)
- GI50 (HCT-15): 2.72 µM
- GI50 (CCRF-CEM): 0.813 µM (active)
- GI50 (SNB-19): 3.89 µM (inactive)
- GI50 (COLO 205): 3.33 µM (inactive)
- GI50 (NCI-H226): 3.52 µM (inactive)
- GI50 (CAKI-1): 3.13 µM (inactive)
- GI50 (EKVX): 2.54 µM (inactive)
- GI50 (SR): 1.53 µM (inactive)
- GI50 (OVCAR-5): 3.22 µM (inactive)
- GI50 (KM-20L2): 1.71 µM (inactive)
- GI50 (RPMI-8226): 2.43 µM (inactive)
- GI50 (TK-10): 11.5 µM (inactive)

Reference: ChEMBL document CHEMBL1201862, “PubChem BioAssay data set” (2004)
